System: MCF-7 cells
Assay: MCF-7 Proliferation Inhibition Assay
Assay type: cell-based, human
Conditions: 10 pM dose of E2, 7 days incubation, CellTiterGlo viability
Procedure: Proliferation Assay in MCF-7 and T47D Cells
MCF-7 and T47D cells were stripped for 3 days in phenol red-free RPMI1640 media containing 10% charcoal-stripped fetal bovine serum (CS-FBS) and 1% Penicillin/streptomycin (P/S). Cells (volume of 90 μl/well) were seeded in 96 well plates at a density of 2500 cells/well for MCF-7 cells and 1500 cells/well for T47D cells. On the following day, plates were treated with the test compounds (10× concentration in media, volume of 10 μl/well added) both in the absence and in the presence of two doses of E2 (10 pM and 1 nM). The cells were incubated with test compounds for 7 days. The viability of the cells was assessed using CellTiterGlo (Promega, Cat #G7573) according to the manufacturer's instructions. Growth inhibition curves and IC50 values were calculated using the GraphPadPrism 6.0 software. Data values shown in Table 1 were obtained using the 10 pM dose of E2.

In the case of `Cc1ccccc1-c1sc2cc(O)ccc2c1Oc1ccc(CCNC2CC2)cc1` [BT-05, 3-(4-(2-(Cyclopropylamino)ethyl)phenoxy)-2-(o-tolyl)benzo[b]thiophen-6-ol], the IC50 (Homo sapiens, MCF7, 168 h) is reported as < 1 nM.
With `Cc1ccccc1-c1sc2cc(O)ccc2c1Oc1ccc(CCNCC2CC2)cc1` [BT-12, 3-(4-(2-((Cyclopropylmethyl)amino)ethyl)phenoxy)-2-(o-tolyl)benzo[b]thiophen-6-ol] the IC50 (Homo sapiens, MCF7, 168 h) was < 1 nM.
In the case of `CCCN1CC(=Cc2ccc(Oc3c(-c4ccccc4C)sc4cc(O)ccc34)cc2)C1` [BT-17, 3-(4-((1-Propylazetidin-3-ylidene)methyl)phenoxy)-2-(o-tolyl)benzo[b]thiophen-6-ol], the IC50 (Homo sapiens, MCF7, 168 h) is reported as < 1 nM.
In the case of `Cc1ccccc1C1=C(Cc2ccc(CCNC3CC3)cc2)c2ccc(O)cc2OCC1` [Bx-06, 5-(4-(2-(Cyclopropylamino)ethyl)benzyl)-4-(o-tolyl)-2,3-dihydrobenzo[b]oxepin-8-ol], the IC50 (Homo sapiens, MCF7, 168 h) is reported as < 1 nM.
For `CCNCCc1ccc(CC2=C(c3ccccc3C)CCOc3cc(O)ccc32)cc1` [Bx-07, 5-(4-(2-(Ethylamino)ethyl)benzyl)-4-(o-tolyl)-2,3-dihydrobenzo[b]oxepin-8-ol], the IC50 (Homo sapiens, MCF7, 168 h) was < 1 nM.
For `CCNCCc1ccc(Cn2c(-c3ccc(OC)cc3)c(C)c3cc(O)ccc32)cc1` [Compound D-01, 1-(4-(2-(Ethylamino)ethyl)benzyl)-2-(4-methoxyphenyl)-3-methyl-1H-indol-5-ol], the IC50 (Homo sapiens, MCF7, 168 h) was 1 to 10 nM.
In the case of `COc1ccc(-c2c(C)c3cc(O)ccc3n2Cc2ccc(CCNC3CC3)cc2)cc1` [Compound D-02, 1-(4-(2-(Cyclopropylamino)ethyl)benzyl)-2-(4-methoxyphenyl)-3-methyl-1H-indol-5-ol], the IC50 (Homo sapiens, MCF7, 168 h) is reported as 1 to 10 nM.
Compound `COc1ccc(-c2c(C)c3cc(O)ccc3n2Cc2ccc(CCNCC3CC3)cc2)cc1` [Compound D-03, 1-(4-(2-((Cyclopropylmethyl)amino)ethyl)benzyl)-2-(4-methoxyphenyl)-3-methyl-1H-indol-5-ol] has an IC50 (Homo sapiens, MCF7, 168 h) of 1 to 10 nM.
Work on `COc1ccc(-c2c(C)c3cc(O)ccc3n2Cc2ccc(CCNC(C)C)cc2)cc1` [Compound D-08, 1-(4-(2-(Isopropylamino)ethyl)benzyl)-2-(4-methoxyphenyl)-3-methyl-1H-indol-5-ol] yielded an IC50 (Homo sapiens, MCF7, 168 h) of 1 to 10 nM.
With `COc1ccc(-c2c(C)c3cc(O)ccc3n2Cc2ccc(CCNCC(F)(F)F)cc2)cc1` [Compound D-12, 2-(4-Methoxyphenyl)-3-methyl-1-(4-(2-((2,2,2-trifluoroethyl)amino)ethyl)benzyl)-1H-indol-5-ol] the IC50 (Homo sapiens, MCF7, 168 h) was > 10 nM.
`CCNCCc1ccc(Cn2c(-c3ccc(OC)cc3)c(Cl)c3cc(O)ccc32)cc1` [Compound D-13, 3-Chloro-1-(4-(2-(ethylamino)ethyl)benzyl)-2-(4-methoxyphenyl)-1H-indol-5-ol] showed an IC50 (Homo sapiens, MCF7, 168 h) of 1 to 10 nM.
With `COc1ccc(-c2c(F)c3cc(O)ccc3n2Cc2ccc(CCNC3CC3)cc2)cc1` [Compound D-15, 1-(4-(2-(Cyclopropylamino)ethyl)benzyl)-3-fluoro-2-(4-methoxyphenyl)-1H-indol-5-ol] the IC50 (Homo sapiens, MCF7, 168 h) was < 1 nM.
For `CCNCCc1ccc(Cn2c(-c3ccc(OC)cc3)c(F)c3cc(O)ccc32)cc1` [Compound D-16, 1-(4-(2-(Ethylamino)ethyl)benzyl)-3-fluoro-2-(4-methoxyphenyl)-1H-indol-5-ol], the IC50 (Homo sapiens, MCF7, 168 h) was < 1 nM.
`Cc1ccccc1-c1c(F)c2cc(O)ccc2n1Cc1ccc(CCNC2CC2)cc1` [Compound D-28, 1-(4-(2-(Cyclopropylamino)ethyl)benzyl)-3-fluoro-2-(o-tolyl)-1H-indol-5-ol] was tested, and the IC50 (Homo sapiens, MCF7, 168 h) was < 1 nM.
With `CCNCCc1ccc(Cn2c(-c3ccccc3C)c(F)c3cc(O)ccc32)cc1` [Compound D-29, 1-(4-(2-(Ethylamino)ethyl)benzyl)-3-fluoro-2-(o-tolyl)-1H-indol-5-ol] the IC50 (Homo sapiens, MCF7, 168 h) was < 1 nM.
`Cc1ccccc1-c1c(F)c2cc(O)ccc2n1Cc1ccc(CC(C)NC2CC2)cc1` [Compound D-32, 1-(4-(2-(Cyclopropylamino)propyl)benzyl)-3-fluoro-2-(o-tolyl)-1H-indol-5-ol] was tested, and the IC50 (Homo sapiens, MCF7, 168 h) was < 1 nM.
`Oc1ccc2c(c1)c(F)c(-c1ccccc1C(F)(F)F)n2Cc1ccc(CCNC2CC2)cc1` [Compound D-33, 1-(4-(2-(Cyclopropylamino)ethyl)benzyl)-3-fluoro-2-(2-(trifluoromethyl)phenyl)-1H-indol-5-ol] was tested, and the IC50 (Homo sapiens, MCF7, 168 h) was < 1 nM.
In the case of `CCNCCc1ccc(Cn2c(-c3ccccc3C(F)(F)F)c(F)c3cc(O)ccc32)cc1` [Compound D-34, 1-(4-(2-(Ethylamino)ethyl)benzyl)-3-fluoro-2-(2-(trifluoromethyl)phenyl)-1H-indol-5-ol], the IC50 (Homo sapiens, MCF7, 168 h) is reported as < 1 nM.
`Cc1cc(F)ccc1-c1c(F)c2cc(O)ccc2n1Cc1ccc(CCNC2CC2)cc1` [Compound D-36, 1-(4-(2-(Cyclopropylamino)ethyl)benzyl)-3-fluoro-2-(4-fluoro-2-methylphenyl)-1H-indol-5-ol] was tested, and the IC50 (Homo sapiens, MCF7, 168 h) was < 1 nM.
For `Oc1ccc2c(c1)c(F)c(-c1ccccc1Cl)n2Cc1ccc(CCNC2CC2)cc1` [Compound D-37, 2-(2-Chlorophenyl)-1-(4-(2-(cyclopropylamino)ethyl)benzyl)-3-fluoro-1H-indol-5-ol], the IC50 (Homo sapiens, MCF7, 168 h) was < 1 nM.
In the case of `Cc1ccccc1-c1c(F)c2cc(O)ccc2n1Cc1ccc(CCNCC2CC2)cc1` [Compound D-39, 1-(4-(2-((Cyclopropylmethyl)amino)ethyl)benzyl)-3-fluoro-2-(o-tolyl)-1H-indol-5-ol], the IC50 (Homo sapiens, MCF7, 168 h) is reported as < 1 nM.
In the case of `Oc1ccc2c(c1)c(F)c(-c1ccccc1C(F)(F)F)n2Cc1ccc(CCNCC2CC2)cc1` [Compound D-40, 1-(4-(2-((Cyclopropylmethyl)amino)ethyl)benzyl)-3-fluoro-2-(2-(trifluoromethyl)phenyl)-1H-indol-5-ol], the IC50 (Homo sapiens, MCF7, 168 h) is reported as < 1 nM.
In the case of `Cc1ccccc1-c1c(F)c2cc(O)ccc2n1Cc1ccc(CCNC2CCC2)cc1` [Compound D-46, 1-(4-(2-(Cyclobutylamino)ethyl)benzyl)-3-fluoro-2-(o-tolyl)-1H-indol-5-ol], the IC50 (Homo sapiens, MCF7, 168 h) is reported as < 1 nM.
For `Cc1cccc(C)c1-c1c(F)c2cc(O)ccc2n1Cc1ccc(CCNC2CCC2)cc1` [Compound D-50, 1-(4-(2-(Cyclobutylamino)ethyl)benzyl)-2-(2,6-dimethylphenyl)-3-fluoro-1H-indol-5-ol], the IC50 (Homo sapiens, MCF7, 168 h) was < 1 nM.
With `Cc1cc(O)ccc1-c1c(F)c2cc(O)ccc2n1Cc1ccc(CCNC2CC2)cc1` [Compound D-52, 1-(4-(2-(Cyclopropylamino)ethyl)benzyl)-3-fluoro-2-(4-hydroxy-2-methylphenyl)-1H-indol-5-ol] the IC50 (Homo sapiens, MCF7, 168 h) was < 1 nM.
With `CCCNCCc1ccc(Cn2c(-c3ccccc3-c3ccccc3)c(F)c3cc(O)ccc32)cc1` [Compound D-66, 2-([1,1′-Biphenyl]-2-yl)-3-fluoro-1-(4-(2-(propylamino)ethyl)benzyl)-1H-indol-5-ol] the IC50 (Homo sapiens, MCF7, 168 h) was < 1 nM.
For `CCCNCCc1ccc(Cn2c(-c3ccccc3C)c(F)c3cc(O)ccc32)cc1` [Compound D-67, 3-Fluoro-1-(4-(2-(propylamino)ethyl)benzyl)-2-(o-tolyl)-1H-indol-5-01], the IC50 was < 1 nM.
`CCCCNCCc1ccc(Cn2c(-c3ccccc3C)c(F)c3cc(O)ccc32)cc1` [Compound D-68, 1-(4-(2-(Butylamino)ethyl)benzyl)-3-fluoro-2-(o-tolyl)-1H-indol-5-01] was tested, and the IC50 was < 1 nM.
For `Cc1ccccc1-c1c(F)c2cc(O)ccc2n1Cc1ccc(CCNCCCF)cc1` [Compound D-69, 3-Fluoro-1-(4-(2-((3-fluoropropyl)amino)ethyl)benzyl)-2-(o-tolyl)-1H-indol-5-ol], the IC50 (Homo sapiens, MCF7, 168 h) was < 1 nM.
With `Cc1ccccc1-c1c(F)c2cc(O)ccc2n1Cc1ccc(CCNCCF)cc1` [Compound D-70, 3-Fluoro-1-(4-(2-((2-fluoroethyl)amino)ethyl)benzyl)-2-(o-tolyl)-1H-indol-5-ol] the IC50 (Homo sapiens, MCF7, 168 h) was < 1 nM.
In the case of `CCNCCc1ccc(Cn2c(-c3c(C)cccc3C)c(F)c3cc(O)ccc32)cc1` [Compound D-78, 2-(2,6-Dimethylphenyl)-1-(4-(2-(ethylamino)ethyl)benzyl)-3-fluoro-1H-indol-5-ol], the IC50 (Homo sapiens, MCF7, 168 h) is reported as < 1 nM.
In the case of `CCNCCc1ccc(Cn2c(-c3ccccc3C)c(F)c3c4cn[nH]c4ccc32)cc1` [Compound D-85, N-Ethyl-2-(4-((8-fluoro-7-(o-tolyl)pyrrolo[3,2-e]indazol-6(3H)-yl)methyl)phenyl)ethan-1-amine], the IC50 (Homo sapiens, MCF7, 168 h) is reported as < 1 nM.
In the case of `CCCNCCc1ccc(Cn2c(-c3ccccc3OC)c(F)c3cc(O)ccc32)cc1` [Compound D-87, 3-Fluoro-2-(2-methoxyphenyl)-1-(4-(2-(propylamino)ethyl)benzyl)-1H-indol-5-ol], the IC50 (Homo sapiens, MCF7, 168 h) is reported as < 1 nM.
In the case of `Cc1ccccc1-c1c(F)c2c3cn[nH]c3ccc2n1Cc1ccc(CCNCC2CC2)cc1` [Compound D-88, N-(Cyclopropylmethyl)-2-(4-((8-fluoro-7-(o-tolyl)pyrrolo[3,2-e]indazol-6(3H)-yl)methyl)phenyl)ethan-1-amine], the IC50 (Homo sapiens, MCF7, 168 h) is reported as < 1 nM.
With `Cc1ccccc1-c1c(F)c2c3cn[nH]c3ccc2n1Cc1ccc(CCNC2CCC2)cc1` [Compound D-89, N-(4-((8-Fluoro-7-(o-tolyl)pyrrolo[3,2-e]indazol-6(3H)-yl)methyl)phenethyl)cyclobutanamine] the IC50 (Homo sapiens, MCF7, 168 h) was < 1 nM.
`Cc1ccccc1-c1c(F)c2c3cn[nH]c3ccc2n1Cc1ccc(CCNC2CC2)cc1` [Compound D-90, N-(4-((8-Fluoro-7-(o-tolyl)pyrrolo[3,2-e]indazol-6(3H)-yl)methyl)phenethyl)cyclopropanamine] was tested, and the IC50 (Homo sapiens, MCF7, 168 h) was < 1 nM.
With `CCCNCCc1ccc(Cn2c(-c3ccccc3C)c(F)c3c4cn[nH]c4ccc32)cc1` [Compound D-91, N-(4-((8-fluoro-7-(o-tolyl)pyrrolo[3,2-e]indazol-6(3H)-yl)methyl)phenethyl)propan-1-amine] the IC50 (Homo sapiens, MCF7, 168 h) was < 1 nM.
In the case of `CCCNCCc1ccc(Cn2c(-c3ccc(OC)cc3C)c(F)c3cc(O)ccc32)cc1` [Compound D-96, 3-Fluoro-2-(4-methoxy-2-methylphenyl)-1-(4-(2-(propylamino)ethyl)benzyl)-1H-indol-5-ol], the IC50 (Homo sapiens, MCF7, 168 h) is reported as < 1 nM.
